Measurements from paper PMC8471380 (Molecules, 2021).

Assays:
[1] = target: T1, MK-801-binding (intrachannel) site of NMDA receptor (Rattus norvegicus, UniProt P35439); assay: Radioligand binding assay, [3H]MK-801 displacement
T1 construct: from tissue; host or cells: rat hippocampus membranes
Protocol: (§3) The effect of the test compounds on radioligand binding to NMDA receptors was evaluated by a modified method, as previously reported [83]. The following two radioligands were used: [^3H] […] A hippocampal membrane preparation for the radioligand binding assay was made as described previously [86, 87]. The obtained membrane pellet was resuspended in a working buffer (5 mM HEPES/4.5 mM Tris, pH 7.6 at 4 °C) in a ratio of 1:5 and stored in liquid nitrogen. The reaction mixture (the final volume was 0.5 mL) contained the working buffer (200 μL), a 50 nM radioligand solution (50 μL) and the membrane suspension (250 μL). The nonspecific binding was evaluated in the presence of 1 mM of the unlabeled ligand (50 μL).
(§4) For the binding assay, the reaction mixture was incubated at room temperature for 2 h. After the incubation, the samples were filtered through GF/B glass fiber filters (Whatman), washed with the working buffer, dried and transferred to scintillation vials. Then the scintillation fluid (5 mL), which is composed of diphenyloxazole (PPO) (4 g) and bis(5-phenyl-2-oxazolyl)benzene (POPOP) (0.2 g) in toluene (1 L) were added to the vials.
(§5) The effect of the test compounds on the binding of [^3H] […] The values of Ki were calculated according to a previously described method [88].

[2] = target: T2, ifenprodil-binding site of NMDA receptor (NR2B subunit) (Rattus norvegicus, UniProt P35439+Q00960); assay: Radioligand binding assay, [3H]ifenprodil displacement
T2 construct: from tissue; host or cells: rat hippocampus membranes
Protocol: as §3, §4, §5

[3] = target: T3, human erythrocyte AChE (Homo sapiens, UniProt P22303); assay: biochemical; settings: 5 min incubation; mean ± SEM, n = 3
T3 construct: commercial human erythrocyte AChE; purchased Sigma; host or cells: human erythrocytes

[4] = target: T4, equine serum BChE (Equus caballus, UniProt P81908); assay: biochemical; settings: 5 min incubation; mean ± SEM, n = 3
T4 construct: equine serum BChE; purchased Sigma; host or cells: equine serum
Protocol: (§6) Reagents blanks consisted of reaction mixtures without substrates. […] Final enzyme and substrate concentrations were 0.02 unit/mL and 1 mM, respectively. Assays were carried out with a blank containing all constituents except porcine CES to assess non-enzymatic hydrolysis. The measurements were performed on a FLUOstar OPTIMA multifunctional microplate reader (BMG LABTECH, Ortenberg, Germany). The compounds were dissolved in DMSO. The incubation mixture contained 2% (v/v) of the solvent. […] The sample of the appropriate enzyme was incubated with the test compound for 5 min, and then the residual enzymatic activity was determined. Each experiment was performed in triplicate. […] Each experiment was performed in triplicate. The IC50 values were calculated with Origin 6.1 software.

[5] = target: T5, porcine liver CES (Sus scrofa, UniProt Q29550); assay: CES inhibition, 4-nitrophenyl acetate hydrolysis; format: biochemical; settings: read-out: % of inhibition of CES with 20 µM concentration of the compound
T5 sequence (Q29550 19-566): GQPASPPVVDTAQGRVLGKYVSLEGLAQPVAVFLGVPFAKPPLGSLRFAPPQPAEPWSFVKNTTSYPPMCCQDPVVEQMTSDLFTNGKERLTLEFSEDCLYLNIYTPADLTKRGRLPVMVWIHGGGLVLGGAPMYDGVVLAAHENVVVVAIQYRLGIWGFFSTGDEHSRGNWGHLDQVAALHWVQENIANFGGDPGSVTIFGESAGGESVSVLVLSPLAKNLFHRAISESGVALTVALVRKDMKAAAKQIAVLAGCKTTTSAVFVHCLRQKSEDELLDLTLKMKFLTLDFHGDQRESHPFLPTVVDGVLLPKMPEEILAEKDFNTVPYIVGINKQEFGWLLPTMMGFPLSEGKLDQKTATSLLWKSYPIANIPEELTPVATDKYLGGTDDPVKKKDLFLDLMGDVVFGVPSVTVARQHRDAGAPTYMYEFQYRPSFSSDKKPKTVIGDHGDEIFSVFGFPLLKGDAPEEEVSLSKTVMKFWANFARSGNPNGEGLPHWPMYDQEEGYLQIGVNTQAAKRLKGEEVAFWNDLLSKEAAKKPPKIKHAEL
Protocol: as §6

[6] = target: T6, PAS of EeAChE (Electrophorus electricus, UniProt O42275); format: binding; settings: 20 µM compound; 7 µM EeAChE, 8 µM propidium iodide; mean ± SEM, n = 3
T6 construct: AChE from Electrophorus electricus (EeAChE, type VI-S, lyophilized powder); purchased Sigma-Aldrich type VI-S; host or cells: Electrophorus electricus tissue
Protocol: The compounds were evaluated as potential inhibitors of proaggregation activity of AChE by measuring the displacement of propidium iodide from the PAS of the enzyme [53] using a fluorescence method [28]. AChE from Electrophorus electricus (EeAChE, type VI-S, lyophilized powder, Sigma-Aldrich, St. Louis, MO, USA) was used for consistency with our previous studies [8, 13, 63, 74]. The fluorescence intensity of propidium iodide bound to AChE increases several-fold. A decrease in the fluorescence intensity in the presence of the test compounds is indicative of their ability to bind to the AChE PAS and, correspondingly, to inhibit β-amyloid aggregation.
EeAChE (7 µM) was incubated with 20 µM of the test compound in 1 mM Tris-HCl buffer, pH 8.0, at 25 °C for 15 min. Then a solution of propidium iodide was added (final concentration 8 µM), the mixture was incubated for 15 min, and the fluorescence spectrum was recorded (excitation at 530 nm and emission at 600 nm). […] The blank contained propidium iodide at the same concentration in 1 mM Tris-HCl buffer, pH 8.0 at 25 °C. The measurements were performed in triplicate on a FLUOstar OPTIMA multifunctional microplate reader.
The degree of displacement of propidium iodide from the PAS of AChE (% displacement) was calculated by the equation:% displacement = 100 − (IFAChE + Propidium + inhibitor/IFAChE + Propidium) × 100, where IFAChE + Propidium is the fluorescence intensity of propidium iodide bound to EeAChE in the absence of the test compound (taken as 100%), and IFAChE + Propidium + inhibitor is the fluorescence intensity of propidium iodide bound to EeAChE in the presence of the test compound.

[7] = target: T3, human erythrocyte AChE; assay: Kinetic study of AChE inhibition (Lineweaver-Burk); format: biochemical
Protocol: (§1) Kinetic studies were performed using commercial human erythrocyte AChE, equine serum BChE and porcine liver CES (Sigma, USA). The AChE and BChE activity was evaluated by Ellman’s method (λ = 412 nm) using 1 mM acetylthiocholine and 1 mM butyrylthiocholine (Sigma, St. Louis, MO, USA), respectively, as the substrate in 100 mM phosphate buffer, pH 7.5, 0.33 mM DTNB, 0.02 unit/mL of AChE or BChE at 25 °C as described in detail in [71]. Reagents blanks consisted of reaction mixtures without substrates. The CES activity was measured spectrophotometrically based on the release of 4-nitrophenol (λ = 405 nm) in the presence of 1 mM 4-nitrophenyl acetate as the substrate in 100 mM phosphate buffer, pH 8.0, at 25 °C as described in [71]. Final enzyme and substrate concentrations were 0.02 unit/mL and 1 mM, respectively. Assays were carried out with a blank containing all constituents except porcine CES to assess non-enzymatic hydrolysis. The measurements were performed on a FLUOstar OPTIMA multifunctional microplate reader (BMG LABTECH, Ortenberg, Germany). The compounds were dissolved in DMSO. The incubation mixture contained 2% (v/v) of the solvent. […] The sample of the appropriate enzyme was incubated with the test compound for 5 min, and then the residual enzymatic activity was determined. Each experiment was performed in triplicate. […]. […] Each experiment was performed in triplicate. The IC50 values were calculated with Origin 6.1 software.
(§2) The mechanisms of AChE and BChE inhibition were assessed by a thorough analysis of enzyme kinetics. The residual activity was determined after a 5-min incubation at 25 °C (for temperature equilibration) with three increasing concentrations of the inhibitor and six decreasing substrate concentrations.

[8] = target: T4, equine serum BChE; assay: Kinetic study of BChE inhibition (Lineweaver-Burk); format: biochemical
Protocol: as §1, §2

[9] = system: isolated rat liver mitochondria; assay: Ca2+-induced mitochondrial swelling (MPT pore opening); format: biochemical; settings: 30 µM compound; 12.5 µM Ca2+; 10 mM glutamate, 2 mM malate, 10 mM succinate; percentage relative to the reference compound
Protocol: Experiments were performed using outbred male rats weighing 200–220 g. The animals were housed under standard vivarium conditions in a normal day/night cycle and had ad libitum access to water and food. The procedure of rat euthanasia using carbon dioxide (CO2) inhalation for mitochondria preparation is in compliance with the Guidelines for Animal Experiments, which were approved by the local bioethics committee of the IPAC RAS.
Rat liver mitochondria were isolated by conventional differential centrifugation. Membrane potential of rat liver mitochondria was measured using the potential-sensitive fluorescent probe Safranine A on a Victor 3 multilabel plate reader (Perkin Elmer, Waltham, MA, USA). The fluorescence was recorded at λex = 485 nm and λem = 590 nm. Mitochondrial swelling was measured by spectrophotometry in 96-well clear bottom plates on a Victor 3 microplate reader (Perkin Elmer, Waltham, MA, USA) at 620 nm; CaCl2 was added to induce mitochondrial swelling (MPT opening).

[10] = system: tubulin and microtubule-associated proteins (Tb+MAP); assay: GTP-dependent Tb+MAP polymerization; format: biochemical, mouse; settings: 100 µM compound; 0.1 mM GTP, 37 °C
Description: A crude fraction of tubulin and microtubule-associated proteins (Tb+MAP) was isolated from mouse brain tissue by a polymerization–depolymerization method. The procedure of mouse euthanasia using cervical dislocation for Tb+MAP preparation is in compliance with the Guidelines for Animal Experiments, which were approved by the local bioethics committee of the IPAC RAS. The freshly dissected brain was immediately placed on ice, cleared of meninges and surface blood vessels, and washed with cold buffer A (50 mM Tris-HCl, pH 6.9 at 4 °C, 2 mM EGTA). The extracted brain tissue was homogenized under ice cooling in the same buffer using a Potter S homogenizer (Sartorius). The resulting homogenate was centrifuged at 10,000× g for 30 min on an Avanti 25 centrifuge (Beckman) using a JA-14 rotor for the precipitation of non-ruptured cells. The precipitate was discarded, and the supernatant was again centrifuged at 100,000× g for 60 min at 4 °C on an Optima MAX XP centrifuge (Beckman) using a MLA-50 rotor. The precipitate was again discarded. The protein concentration in the supernatant was determined by the Bradford assay using the Bio-Rad Protein Assay kit (Bio-Rad, Hercules, CA, USA) according to manufacturer’s instructions. The resulting supernatant was a cytosolic fraction enriched in microtubular proteins (Tb and MAP).
The Tb+MAP preparation was centrifuged at 5000× g for 10 min at 4 °C immediately before polymerization in order to remove denatured and aggregated protein molecules by precipitation. The Tb+MAP polymerization was performed at 37 °C in buffer A in the presence of 0.1 mM GTP after addition of 100 µM of test compound or the same volume of vehicle (DMSO). The protein concentration in the sample was 0.2 mg/mL. The polymerization kinetics was monitored on a Victor 3 or EnVision microplate reader (Perkin Elmer, USA) at 355 nm and the stabilized rate of polymerization after the first wave was measured (dA355/dt).

[11] = Lineweaver-Burk double-reciprocal plots

T3 sequence (P22303 32-617 isoform P22303-2 limits assumed): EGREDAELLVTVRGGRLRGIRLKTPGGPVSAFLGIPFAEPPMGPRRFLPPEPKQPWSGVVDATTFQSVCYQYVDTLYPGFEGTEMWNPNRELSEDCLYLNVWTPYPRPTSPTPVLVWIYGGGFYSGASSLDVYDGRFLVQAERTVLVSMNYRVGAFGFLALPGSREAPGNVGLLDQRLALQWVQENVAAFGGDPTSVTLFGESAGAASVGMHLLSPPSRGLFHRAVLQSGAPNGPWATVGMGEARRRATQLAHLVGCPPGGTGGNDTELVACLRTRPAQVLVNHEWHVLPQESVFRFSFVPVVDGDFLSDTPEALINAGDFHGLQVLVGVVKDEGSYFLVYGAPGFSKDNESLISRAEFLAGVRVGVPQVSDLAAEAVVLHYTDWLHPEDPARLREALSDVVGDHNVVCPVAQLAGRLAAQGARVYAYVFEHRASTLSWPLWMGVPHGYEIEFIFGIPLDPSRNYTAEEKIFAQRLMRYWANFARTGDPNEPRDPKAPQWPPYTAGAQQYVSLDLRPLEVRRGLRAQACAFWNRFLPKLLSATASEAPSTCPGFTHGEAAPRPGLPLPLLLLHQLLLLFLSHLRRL
T6 sequence (O42275 24-633): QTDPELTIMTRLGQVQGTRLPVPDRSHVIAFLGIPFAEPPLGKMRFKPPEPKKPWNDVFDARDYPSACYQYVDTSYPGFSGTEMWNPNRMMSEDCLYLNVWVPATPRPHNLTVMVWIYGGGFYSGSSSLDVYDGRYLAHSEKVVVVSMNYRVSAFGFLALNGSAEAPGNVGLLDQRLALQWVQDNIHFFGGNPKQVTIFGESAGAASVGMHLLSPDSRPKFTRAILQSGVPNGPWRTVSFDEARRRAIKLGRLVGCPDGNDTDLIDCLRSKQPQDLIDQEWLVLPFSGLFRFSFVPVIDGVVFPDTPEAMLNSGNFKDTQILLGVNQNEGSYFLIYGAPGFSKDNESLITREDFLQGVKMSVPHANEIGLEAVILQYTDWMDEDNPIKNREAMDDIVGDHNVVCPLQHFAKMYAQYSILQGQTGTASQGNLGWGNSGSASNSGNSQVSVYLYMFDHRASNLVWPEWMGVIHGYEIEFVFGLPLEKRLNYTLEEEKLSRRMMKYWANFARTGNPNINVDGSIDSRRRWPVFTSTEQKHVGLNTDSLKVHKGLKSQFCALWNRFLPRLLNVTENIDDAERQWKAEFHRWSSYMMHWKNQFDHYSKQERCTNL
T4 sequence (P81908 whole entry): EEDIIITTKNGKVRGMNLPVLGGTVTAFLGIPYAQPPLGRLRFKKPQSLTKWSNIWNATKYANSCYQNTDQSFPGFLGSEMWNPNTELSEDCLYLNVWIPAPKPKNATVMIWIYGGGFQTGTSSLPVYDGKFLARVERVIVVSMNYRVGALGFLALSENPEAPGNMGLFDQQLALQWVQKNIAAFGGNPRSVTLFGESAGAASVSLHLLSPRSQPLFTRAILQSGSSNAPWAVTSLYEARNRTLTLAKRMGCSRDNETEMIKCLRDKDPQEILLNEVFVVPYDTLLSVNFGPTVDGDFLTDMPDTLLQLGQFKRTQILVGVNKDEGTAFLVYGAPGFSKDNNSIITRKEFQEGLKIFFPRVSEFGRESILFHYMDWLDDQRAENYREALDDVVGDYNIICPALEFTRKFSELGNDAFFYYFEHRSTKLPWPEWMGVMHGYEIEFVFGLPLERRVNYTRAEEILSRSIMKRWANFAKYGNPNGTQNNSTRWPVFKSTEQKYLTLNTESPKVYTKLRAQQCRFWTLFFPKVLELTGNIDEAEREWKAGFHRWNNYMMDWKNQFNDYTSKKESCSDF
T2 sequence (Q00960 27-1482, other chains not shown): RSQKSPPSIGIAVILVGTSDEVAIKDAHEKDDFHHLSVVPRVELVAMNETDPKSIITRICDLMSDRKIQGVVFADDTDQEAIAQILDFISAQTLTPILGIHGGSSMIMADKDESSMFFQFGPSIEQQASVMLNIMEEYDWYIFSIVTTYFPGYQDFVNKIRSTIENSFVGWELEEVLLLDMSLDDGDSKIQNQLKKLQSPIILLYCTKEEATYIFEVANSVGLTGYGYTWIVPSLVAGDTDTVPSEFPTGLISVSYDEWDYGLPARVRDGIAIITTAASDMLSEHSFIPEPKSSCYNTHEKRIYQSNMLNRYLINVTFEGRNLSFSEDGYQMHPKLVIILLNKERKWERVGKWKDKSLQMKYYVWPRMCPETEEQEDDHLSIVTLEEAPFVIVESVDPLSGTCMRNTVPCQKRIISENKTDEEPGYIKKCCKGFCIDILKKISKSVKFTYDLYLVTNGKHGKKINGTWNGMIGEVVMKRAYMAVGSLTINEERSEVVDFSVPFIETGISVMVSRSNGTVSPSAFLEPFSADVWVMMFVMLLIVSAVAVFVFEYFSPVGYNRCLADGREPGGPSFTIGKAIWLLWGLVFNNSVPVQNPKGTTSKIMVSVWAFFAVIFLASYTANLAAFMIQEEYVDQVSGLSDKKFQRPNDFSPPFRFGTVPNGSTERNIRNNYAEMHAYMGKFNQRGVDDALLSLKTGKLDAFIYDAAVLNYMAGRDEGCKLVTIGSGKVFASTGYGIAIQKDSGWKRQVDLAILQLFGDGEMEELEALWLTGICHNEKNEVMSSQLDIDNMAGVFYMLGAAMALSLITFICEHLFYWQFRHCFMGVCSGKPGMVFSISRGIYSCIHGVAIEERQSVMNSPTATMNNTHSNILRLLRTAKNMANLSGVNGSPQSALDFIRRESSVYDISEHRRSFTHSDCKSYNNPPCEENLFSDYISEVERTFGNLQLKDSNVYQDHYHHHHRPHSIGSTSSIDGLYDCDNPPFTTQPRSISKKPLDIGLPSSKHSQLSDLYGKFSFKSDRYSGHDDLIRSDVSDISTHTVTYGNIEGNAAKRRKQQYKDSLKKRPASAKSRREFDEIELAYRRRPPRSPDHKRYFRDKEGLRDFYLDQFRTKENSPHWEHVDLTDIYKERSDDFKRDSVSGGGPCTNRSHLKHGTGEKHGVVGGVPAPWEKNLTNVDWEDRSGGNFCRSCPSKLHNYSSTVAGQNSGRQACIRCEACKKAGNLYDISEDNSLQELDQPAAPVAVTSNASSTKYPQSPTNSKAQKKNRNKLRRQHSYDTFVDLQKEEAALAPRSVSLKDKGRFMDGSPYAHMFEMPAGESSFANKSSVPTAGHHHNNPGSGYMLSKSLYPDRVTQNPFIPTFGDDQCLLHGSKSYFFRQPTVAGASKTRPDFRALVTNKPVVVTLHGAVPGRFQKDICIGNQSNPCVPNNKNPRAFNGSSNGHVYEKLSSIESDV

CN1CCc2c(c3cc(F)ccc3n2CCNC23CC4CC(C)(CC(C)(C4)C2)C3)C1.Cl.Cl [Compound 4c, N-(2-(8-Fluoro-2-methyl-3,4-dihydro-1H-pyrido[4,3-b]indol-5(2H)-yl)ethyl)-3,5-dimethyladamantane-1-amine dihydrochloride]
Ki [1]: 4.7 ± 0.5 µM
Ki [2]: 3.1 ± 0.3 µM
IC50 [3]: 39.7 ± 3.2 µM
IC50 [4]: 0.729 ± 0.011 µM
inhibition at 20 µM [5]: 6.9 ± 0.4%
% of Displacement of Propidium Iodide from the PAS of EeAChE [6]: 13.1 ± 1.0%
αKi (non-competitive component), AChE ([7]; Lineweaver-Burk analysis): 45.5 ± 3.8 µM
Ki ([7]; Lineweaver-Burk analysis, read-out: Ki (competitive component), AChE): 13.7 ± 0.02 µM
Type of AChE inhibition [7, 11]: mixed type of inhibition
αKi (non-competitive component), BChE ([8]; Lineweaver-Burk analysis): 0.70 ± 0.01 µM
Ki ([8]; Lineweaver-Burk analysis, read-out: Ki (competitive component), BChE): 0.23 ± 0.02 µM
Type of BChE inhibition [8, 11]: mixed type of inhibition
Rate of Ca2+-Induced Mitochondrial Swelling (dA620/dt) [9]: 31 ± 10%
Rate of Tb+MAP Polymerization (dA355/dt) [10]: 166 ± 11%

Cc1ccc2c(c1)c1c(n2CCNC23CC4CC(CC(C4)C2)C3)CCN(C)C1.Cl.Cl [Compound 4e, N-(2-(2,8-Dimethyl-3,4-dihydro-1H-pyrido[4,3-b]indol-5(2H)-yl)ethyl)adamantane-1-amine dihydrochloride]
Ki [1]: 10.3 ± 1.6 µM
Ki [2]: 8.2 ± 0.9 µM
IC50 [3]: 63.3 ± 3.3 µM
IC50 [4]: 9.05 ± 0.8 µM
inhibition at 20 µM [5]: 2.5 ± 0.5%
% of Displacement of Propidium Iodide from the PAS of EeAChE [6]: 15.1 ± 1.2%
Rate of Ca2+-Induced Mitochondrial Swelling (dA620/dt) [9]: 42 ± 9%
Rate of Tb+MAP Polymerization (dA355/dt) [10]: 239 ± 21%

CN1CCc2c(c3ccccc3n2CCNC23CC4CC(CC(C4)C2)C3)C1.Cl.Cl [Compound 4d, N-(2-(2-Methyl-3,4-dihydro-1H-pyrido[4,3-b]indol-5(2H)-yl)ethyl)adamantane-1-amine dihydrochloride]
Ki [1]: 3.3 ± 0.3 µM
Ki [2]: 4.4 ± 0.3 µM
IC50 [3]: 112 ± 5 µM
IC50 [4]: 2.48 ± 0.22 µM
inhibition at 20 µM [5]: 2.9 ± 0.8%
% of Displacement of Propidium Iodide from the PAS of EeAChE [6]: 10.1 ± 0.9%
Rate of Ca2+-Induced Mitochondrial Swelling (dA620/dt) [9]: 35 ± 13%
Rate of Tb+MAP Polymerization (dA355/dt) [10]: 162 ± 19%
